Experimental data from PubChem BioAssay AID1963864 (Molecular Pharmacology Branch, DTP, NCI, 2024).

System: KRAS PDC multicell spheroid viability
Test: Anticancer human tumor 521955-158-R6-J3-PDC patient-derived pancreatic carcinoma cell line growth inhibition [KRAS2]
Details: for viability, T/C: stronger effect = lower value
Description: Multicellular complex tumor spheroid response to RAS pathway inhibitors in combination with a targeted agents in patient-derived cell lines with oncogenic KRAS variants from multiple cancer types
A high-throughput screen of multi-cell type tumor spheroids was designed to identify active combinations of targeted small molecules and KRAS pathway inhibitors. Complex spheroids include a stromal component modeled by human endothelial cells (HUVEC) and fibroblasts modeled by human mesenchymal stem cells (MSCs). The concentration ranges selected for each drug and investigational agent were based upon clinically achievable concentrations if the clinical Cmax of the agent was known.
Compounds. The drugs and investigational agents: BI-3406 (NSC825286), BAY-293 (NSC824723), batoprotafib (TNO155; NSC825523), sotorasib (AMG 510; NSC818433), MRTX1257 (NSC819558), elimusertib (BAY 1895344; NSC800525), molibresib (GSK525762; NSC774829), temuterkib (LY3214996; NSC803410), venetoclax (NSC766270), alisertib (NSC759677), olaparib (NSC753686), talazoparib (NSC767125), erdafitinib (NSC781556), ipatasertib (NSC767898), cabozantinib (NSC761068), nintedanib (NSC756659), abemaciclib (NSC768073), docetaxel (NSC628503), trametinib (NSC758246), and sapanisertib (NSC764658) were obtained from the National Cancer Institute (NCI) Developmental Therapeutics Program Chemical Repository. The FDA-approved anticancer drug set is available from the Developmental Therapeutics Program. […] The stock solutions were prepared in dimethyl sulfoxide (DMSO, Sigma-Aldrich, St. Louis, MO, cat. D2650) at 800-fold the tested concentration and stored at -70 degrees C prior to their use. All drugs and investigational agents were tested over a range starting from a high concentration at or near the clinical Cmax and decreasing in half-log increments. If the clinical Cmax for an agent had not been determined, the highest concentration tested was 10 microM.
Cell Culture. All cells were maintained in an incubator at 37 degrees C and 5% CO2 with 95% humidity. The PDC lines were cultured according to standard operating procedures established by the NCI PDMR (https://pdmr.cancer.gov/sops/default.htm). Briefly, all PDCs were thawed and cultured in Matrigel-coated flasks prepared with a working solution of 1X Ham's F-12 nutrient mix, without supplementation (Invitrogen, Waltham, MA, cat. 11765054), 100 U/mL penicillin-streptomycin (Invitrogen, cat. 15140122), and 2.5% Matrigel (Corning Inc., Corning, NY, cat. 354248) for the first three passages. All PDCs were cultured in complete DMEM/F-12 media containing advanced DMEM/F-12 (Invitrogen, cat. 12634028), 4.9% defined fetal bovine serum, heat inactivated (HyClone Laboratories Inc., Logan, UT, cat. SH30070.03HI), 389 ng/mL hydrocortisone (Sigma-Aldrich, cat. H4001), 9.7 ng/mL human EGF recombinant protein (Invitrogen, cat. PHG0313), 23.4 microg/mL adenine (Sigma-Aldrich, cat. A2786), 97.3 U/mL penicillin-streptomycin (Invitrogen, cat. 15140122), 1.9 mM L-glutamine (Invitrogen, cat. 25030081), and 9.7 microM Y-27632 dihydrochloride (Tocris Bioscience, Bristol, United Kingdom, cat. 1254). The PDCs were cultured in complete DMEM/F12 media without 9.7 microM Y-27632 dihydrochloride for at least two passages prior to the screen. The established cell line HOP-62 was cultured in RPMI 1640 medium, HEPES (Invitrogen, cat. 22400105) with 10% defined fetal bovine serum (HyClone Laboratories Inc., cat. SH30070.03) and 2 mM L-glutamine (Invitrogen, cat. 25030081). The pooled donor HUVEC were cultured in endothelial cell growth medium 2 (PromoCell, Heidelberg, Germany, cat. C-22011) and the hMSC were cultured in mesenchymal stem cell growth medium 2 (PromoCell, cat. C-28009). For all experiments, HUVEC and hMSC were used at passages </=5, while the malignant cell lines were used at passages </=15. […]

[1] = curve of first compound, second compound 0.1 µM
[2] = curve of first compound, second compound 0.316 µM
[3] = curve of first compound, second compound 1 µM
[4] = curve of first compound, second compound 3.16 µM
[5] = curve of first compound, second compound 10 µM
[6] = second compound 0.1 µM, first compound 0.00316 µM
[7] = second compound 0.1 µM, first compound 0.01 µM
[8] = second compound 0.1 µM, first compound 0.0316 µM
[9] = second compound 0.1 µM, first compound 0.1 µM
[10] = second compound 0.1 µM, first compound 0.316 µM
[11] = second compound 0.1 µM, first compound 1 µM
[12] = second compound 0.316 µM, first compound 0.00316 µM
[13] = second compound 0.316 µM, first compound 0.01 µM
[14] = second compound 0.316 µM, first compound 0.0316 µM
[15] = second compound 0.316 µM, first compound 0.1 µM
[16] = second compound 0.316 µM, first compound 0.316 µM
[17] = second compound 0.316 µM, first compound 1 µM
[18] = second compound 1 µM, first compound 0.00316 µM
[19] = second compound 1 µM, first compound 0.01 µM
[20] = second compound 1 µM, first compound 0.0316 µM
[21] = second compound 1 µM, first compound 0.1 µM
[22] = second compound 1 µM, first compound 0.316 µM
[23] = second compound 1 µM, first compound 1 µM
[24] = second compound 3.16 µM, first compound 0.00316 µM
[25] = second compound 3.16 µM, first compound 0.01 µM
[26] = second compound 3.16 µM, first compound 0.0316 µM
[27] = second compound 3.16 µM, first compound 0.1 µM
[28] = second compound 3.16 µM, first compound 0.316 µM
[29] = second compound 3.16 µM, first compound 1 µM
[30] = second compound 10 µM, first compound 0.00316 µM
[31] = second compound 10 µM, first compound 0.01 µM
[32] = second compound 10 µM, first compound 0.0316 µM
[33] = second compound 10 µM, first compound 0.1 µM
[34] = second compound 10 µM, first compound 0.316 µM
[35] = second compound 10 µM, first compound 1 µM
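Further: drug exposure lasted seven days.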
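Wherever viability, T/C is given: 100% = DMSO vehicle wells and lower means fewer viable cells.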

## CCN1CCN(Cc2ccc(Nc3ncc(F)c(-c4cc(F)c5nc(C)n(C(C)C)c5c4)n3)nc2)CC1 + CNCc1ccccc1-c1csc(C(C)Nc2nc(C)nc3cc(OC)c(OC)cc23)c1
[1]
  IC50: > 1000 nM
[2]
  IC50: > 1000 nM
[3]
  IC50: 317 nM
[4]
  IC50: < 3.16 nM
[5]
  IC50: < 3.16 nM
[6]
  viability, T/C: 75.1%
[7]
  viability, T/C: 77.8%
[8]
  viability, T/C: 70.5%
[9]
  viability, T/C: 67.1%
[10]
  viability, T/C: 72.1%
[11]
  viability, T/C: 102%
[12]
  viability, T/C: 77.7%
[13]
  viability, T/C: 71.9%
[14]
  viability, T/C: 74.1%
[15]
  viability, T/C: 68%
[16]
  viability, T/C: 67.5%
[17]
  viability, T/C: 80.2%
[18]
  viability, T/C: 66.8%
[19]
  viability, T/C: 70.3%
[20]
  viability, T/C: 63.5%
[21]
  viability, T/C: 53.8%
[22]
  viability, T/C: 54.8%
[23]
  viability, T/C: 30.8%
[24]
  viability, T/C: 0.3%
[25]
  viability, T/C: 0.38%
[26]
  viability, T/C: 0.51%
[27]
  viability, T/C: 0.75%
[28]
  viability, T/C: 0.45%
[29]
  viability, T/C: 0.37%
[30]
  viability, T/C: 0.25%
[31]
  viability, T/C: 0.26%
[32]
  viability, T/C: 0.3%
[33]
  viability, T/C: 0.21%
[34]
  viability, T/C: 0.22%
[35]
  viability, T/C: 0.46%

## CCNC(=O)CC1N=C(c2ccc(Cl)cc2)c2cc(OC)ccc2-n2c(C)nnc21 (stereo not drawn)
Compound 0.0316 µM
  viability, T/C: 96.8% [middle of 5 runs]
Compound 0.1 µM
  viability, T/C: 90.3% [middle of 5 runs]
Compound 0.316 µM
  viability, T/C: 84.9% [middle of 5 runs]
Compound 3.16 µM
  viability, T/C: 79.8% [middle of 5 runs]
Compound 10 µM
  viability, T/C: 79.4% [middle of 5 runs]
Curve of compound
  IC50: > 10000 nM

## CC(C)NCC(C(=O)N1CCN(c2ncnc3c2C(C)CC3O)CC1)c1ccc(Cl)cc1 (stereo not drawn) + CNCc1ccccc1-c1csc(C(C)Nc2nc(C)nc3cc(OC)c(OC)cc23)c1
[1]
  IC50: > 10000 nM
[2]
  IC50: > 10000 nM
[3]
  IC50: > 10000 nM
[4]
  IC50: < 31.6 nM
[5]
  IC50: < 31.6 nM
[8]
  viability, T/C: 88.1%
[9]
  viability, T/C: 84.2%
[10]
  viability, T/C: 74.7%
[11]
  viability, T/C: 69.8%
Second compound 0.1 µM, first compound 3.16 µM
  viability, T/C: 80.4%
Second compound 0.1 µM, first compound 10 µM
  viability, T/C: 70.2%
[14]
  viability, T/C: 74.9%
[15]
  viability, T/C: 80%
[16]
  viability, T/C: 64.8%
[17]
  viability, T/C: 64.5%
Second compound 0.316 µM, first compound 3.16 µM
  viability, T/C: 66.7%
Second compound 0.316 µM, first compound 10 µM
  viability, T/C: 63%
[20]
  viability, T/C: 77.6%
[21]
  viability, T/C: 62.7%
[22]
  viability, T/C: 67.6%
[23]
  viability, T/C: 64.3%
Second compound 1 µM, first compound 3.16 µM
  viability, T/C: 66.9%
Second compound 1 µM, first compound 10 µM
  viability, T/C: 61.4%
[26]
  viability, T/C: 0.31%
[27]
  viability, T/C: 0.37%
[28]
  viability, T/C: 0.26%
[29]
  viability, T/C: 0.31%
Second compound 3.16 µM, first compound 3.16 µM
  viability, T/C: 1.96%
Second compound 3.16 µM, first compound 10 µM
  viability, T/C: 0.86%
[32]
  viability, T/C: 0.16%
[33]
  viability, T/C: 0.14%
[34]
  viability, T/C: 0.24%
[35]
  viability, T/C: 0.25%
Second compound 10 µM, first compound 3.16 µM
  viability, T/C: 0.16%
Second compound 10 µM, first compound 10 µM
  viability, T/C: 0.27%

## Cn1ncnc1[C@H]1c2n[nH]c(=O)c3cc(F)cc(c23)N[C@@H]1c1ccc(F)cc1 + COc1cc2nc(C)nc(NC(C)c3cc(N)cc(C(F)(F)F)c3)c2cc1OC1CCOC1
[1]
  IC50: > 100 nM
[2]
  IC50: > 100 nM
[3]
  IC50: > 100 nM
[4]
  IC50: > 100 nM
[5]
  IC50: < 0.316 nM
Second compound 0.1 µM, first compound 0.000316 µM
  viability, T/C: 96.2%
Second compound 0.1 µM, first compound 0.001 µM
  viability, T/C: 94.9%
[6]
  viability, T/C: 86.8%
[7]
  viability, T/C: 87.8%
[8]
  viability, T/C: 94%
[9]
  viability, T/C: 93.1%
Second compound 0.316 µM, first compound 0.000316 µM
  viability, T/C: 90.5%
Second compound 0.316 µM, first compound 0.001 µM
  viability, T/C: 92.6%
[12]
  viability, T/C: 86.7%
[13]
  viability, T/C: 87.8%
[14]
  viability, T/C: 87.3%
[15]
  viability, T/C: 84.2%
Second compound 1 µM, first compound 0.000316 µM
  viability, T/C: 83.2%
Second compound 1 µM, first compound 0.001 µM
  viability, T/C: 78.3%
[18]
  viability, T/C: 80.5%
[19]
  viability, T/C: 86.6%
[20]
  viability, T/C: 82.3%
[21]
  viability, T/C: 82.6%
Second compound 3.16 µM, first compound 0.000316 µM
  viability, T/C: 68.2%
Second compound 3.16 µM, first compound 0.001 µM
  viability, T/C: 73.9%
[24]
  viability, T/C: 71.5%
[25]
  viability, T/C: 72.3%
[26]
  viability, T/C: 71.8%
[27]
  viability, T/C: 74.9%
Second compound 10 µM, first compound 0.000316 µM
  viability, T/C: 23.4%
Second compound 10 µM, first compound 0.001 µM
  viability, T/C: 27.8%
[30]
  viability, T/C: 9.47%
[31]
  viability, T/C: 25.1%
[32]
  viability, T/C: 8.29%
[33]
  viability, T/C: 16%

## CC(=O)OC12COC1CC(O)C1(C)C(=O)C(O)C3=C(C)C(OC(=O)C(O)C(NC(=O)OC(C)(C)C)c4ccccc4)CC(O)(C(OC(=O)c4ccccc4)C21)C3(C)C (stereo not drawn)
Compound 0.01 µM
  viability, T/C: 87.1% [middle of 5 runs]
Compound 0.0316 µM
  viability, T/C: 77.4% [middle of 5 runs]
Compound 0.1 µM
  viability, T/C: 73.6% [middle of 5 runs]
Compound 0.316 µM
  viability, T/C: 86.8% [middle of 5 runs]
Compound 1 µM
  viability, T/C: 101% [middle of 5 runs]
Compound 3.16 µM
  viability, T/C: 119% [middle of 5 runs]
Curve of compound
  IC50: > 3160 nM
